Test results as given in patent US12378528B2, “Systems and methods for growth of intestinal cells in microfluidic devices” (EMULATE, INC., priority 2016, dated 2025).

Experiments:
[1] = system: mitochondrial respiration in iFGEs; experiment: Seahorse mitochondrial stress test in iFGEs; assay type: cell-based, human
Protocol: (§1) The Seahorse XF^e24 Extracellular Flux Analyzer (Seahorse Biosciences) was used to perform mitochondrial stress tests and obtain real-time measurements of oxygen consumption rate (OCR) in cells. iFGEs and iHTNS treated with or without EDCs were seeded in a 24-well Seahorse culture plate at a density of 10,000-15,000 cells/well. For analysis of OCR, cells were reconstituted in Seahorse base medium and were allowed to settle for 1 hour at 37° C. in non-CO2 incubator before measurements. Chemical reagents (Sigma) were used at final concentrations as follows: 1 μM Oligomycin—an ATP synthase inhibitor, 1 μM (FCCP) carbonyl cyanide 4-(trifluoromethoxy)phenylhydrazone—an uncoupling agent, and a mixture of 0.5 μM antimycin A—a cytochrome C reductase inhibitor and 0.5 μM rotenone—a complex I inhibitor. Results were normalized to protein concentration determined by BCA assay (Thermo Scientific).

[2] = system: mitochondrial respiration in iHTNs; experiment: Seahorse mitochondrial stress test in iHTNs; assay type: cell-based, human
Protocol: as §1

[3] = system: human intestinal epithelial cells derived from IPSCs; experiment: Transepithelial electrical resistance (TEER) on microfluidic chip; assay type: cell-based; settings: IFNgamma 10 ng/ml, basal administration, over time, n=4
Protocol: (§2) Intestinal epithelium, derived from iPSCs, is seeded onto the microfluidic device followed by characterization of intestinal epithelial subtypes. Functional assays, including an examination of permeability via transepithelial resistance and dextran FITC efflux will be assessed either under basal conditions or in response to inflammatory cytokines such as interferon-gamma (IFNg) and/or tumor necrosis factor-alpha (TNFalpha). Also drug candidates that may modulate the various intestinal epithelial subtypes will be examined to assess if such subtypes can indeed be modulated. After establishing such assays, IPSCs from genetically defined inflammatory bowel disease (IBD) patients will be generated, differentiated into intestinal organoids, disassociated and subsequently seeded onto the microfluidic devices and the functional consequences of the genetic variations associated with IBD will be assessed.
(§3) Human intestinal epithelial cells derived from IPSCs were treated with 10 ng/ml of IFNgamma. The basal administration of IFNg leads to a decrease in transepithelial resistance and an increase in the efflux of dextran FITC in human intestinal epithelial cells derived from IPSCs. Basically this means that the intestinal epithelium is more permeable in response to this cytokine.

[4] = system: human intestinal epithelial cells derived from IPSCs; experiment: FITC dextran permeability on microfluidic chip; assay type: cell-based; settings: for permeability co-efficient of FITC dextran added to the apical channel / efflux of dextran FITC / accumulation in the basal layer: IFNgamma 10 ng/ml; for efflux of dextran FITC / accumulation in the basal layer: dextran added to apical channel
Protocol: as §2, §3

[5] = system: STAT1 and IFNgamma responsive genes; experiment: STAT1 phosphorylation and gene expression in iPSC-derived intestinal epithelium on microfluidic device; assay type: cell-based, human; settings: administration to the lower channel
Protocol: In one embodiment, iPSCs were directed to form HIOs and were subsequently dissociated to a single cell suspension. These cells were then seeded into a small microfluidic device (SMD) which is composed of two chambers separated by a porous flexible membrane. See, FIG. 40.

[6] = system: Caco2 cells; experiment: Gene expression in Caco2 cells treated with IFNgamma; assay type: cell-based, human

Compound | effect on mitochondrial spare respiratory capacity [1] | effect on mitochondrial spare respiratory capacity [2] | transepithelial electrical resistance (TEER) [3] | permeability co-efficient of FITC dextran added to the apical channel [4] | efflux of dextran FITC / accumulation in the basal layer [4] | also measured
Cc1cc(C(C)(C)C)c(O)c(C(C)(C)C)c1 [BHT, Butylated hydroxytoluene] | significant decrease | significant impairment | – | – | – | –
O=C(O)C(F)(F)C(F)(F)C(F)(F)C(F)(F)C(F)(F)C(F)(F)C(F)(F)F [PFOA, Perfluorooctanoic acid] | did not show any effect | did not show any effect | – | – | – | –
IFNgamma: inflammatory cytokine interferon-gamma | – | – | loss of transepithelial electrical resistance | increase | increase | transepithelial electrical resistance (TEER) ([3]; listed as IFNg): decrease; efflux of dextran FITC / accumulation in the basal layer ([4]; listed as INFgamma): accumulation in the basal layer; expression of IFNgamma responsive genes IDO1, GBP4 and/or GBP5 [5]: significant upregulation; expression of phospholipase A2 group 2A and Muc4 [5]: also upregulated; phosphorylation of STAT1 [5]: phosphorylation of STAT1; expression of genes associated with intestinal epithelial subtypes [6]: no corresponding upregulation
TNFalpha | – | – | increased TEER over time comparable to controls | comparable | comparable | intestinal permeability ([4]; addition of TNFa): does not elicit any change
Tributyltin [TBT] | – | significant impairment | – | – | – | –
